Results taken from PMC7824550 (Biomolecules, 2020).
Like-named read-outs stand apart in the source and are kept apart here.

Legend:
human cathepsin B [1] = target: T1, human cathepsin B (Homo sapiens, UniProt P07858); assay: Inhibition of cathepsin B, fluorogenic substrate Z-Phe-Arg-AMC; conditions: for Ki: cathepsin B
human cathepsin L = target: T2, human cathepsin L (Homo sapiens, UniProt P07711); assay: Inhibition of cathepsin L, fluorogenic substrate Z-Leu-Arg-AMC; assay type: biochemical; conditions: for Mechanism of inhibition of cathepsin L / Ki: pH 5.5
T2 construct: made in house

human cathepsin B [2] = target: T1, human cathepsin B; assay: Inhibition of peptidyl-dipeptidase activity of cathepsin B, substrate Abz-Gly-Ile-Val-Arg-Ala-Lys(Dnp)-OH; assay type: biochemical; set-up: made in house; conditions: pH 5.5, [S] = Km, read-out: IC50, peptidyl-peptidase activity of cathepsin B
Experimental: In addition, the peptidyl-dipeptidase activity of cathepsin B was measured with the internally quenched fluorigenic substrate Abz-Gly-Ile-Val-Arg-Ala-Lys(Dnp)-OH. Cleavage of this substrate was assessed at λex = 370 nm and λem = 430 nm. […] Nevertheless, appropriate correction of the inner filter effect was performed for all compounds according to the following reference.
For linear (complete) inhibitors, v∞ = 0.

[3] = Solubility under the experimental conditions used; assay type: physicochemical; conditions: assay buffer of the cathepsin L inhibition screening, aqueous buffer; under the experimental conditions used (pH 5.5 assay buffer); read-out: Limited solubility
Experimental: The kinetic characterization of CA, CAPE, and CGA was initially performed under the same conditions as the inhibition screening (pH 5.5). All compounds acted as fast, linear inhibitors of cathepsin L, as observed for DPPI [17]. Kinetic mechanisms and inhibition parameters were determined by a combination of titration curves (plots of the residual enzyme activity (vX/v0) against the inhibitor concentration) and replots of the experimental data as specific velocity plots. The remaining titration curves were collected in Supplementary Figure S1. […] However, a more precise characterization of its effect was made difficult by its limited solubility of only up to about 200 μM under the experimental conditions used.

cathepsin K = target: T3, cathepsin K (Homo sapiens, UniProt P43235); assay: Inhibition of cathepsin K (results not shown); assay type: biochemical; conditions: confirmed in the authors' laboratory
T3 sequence (P43235 115-329): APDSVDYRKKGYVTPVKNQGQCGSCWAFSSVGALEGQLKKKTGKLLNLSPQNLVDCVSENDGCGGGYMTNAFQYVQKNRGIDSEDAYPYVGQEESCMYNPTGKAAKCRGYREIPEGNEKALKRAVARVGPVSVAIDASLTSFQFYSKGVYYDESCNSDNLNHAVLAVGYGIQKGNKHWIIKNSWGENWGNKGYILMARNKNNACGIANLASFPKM

[4] = test system: dipeptidyl-peptidase I (DPPI); set-up: method as in PMID 31574257; conditions: previously characterized; cited from earlier work
[5] = KCa, pH 5.5, catalytic (uncompetitive) inhibition constant
[6] = KCa, pH 7.4, catalytic (uncompetitive) inhibition constant
[7] = KSp, pH 7.4, specific (competitive) inhibition constant
[8] = catalytic (uncompetitive) inhibition constant, read-out: KCa, cathepsin L
[9] = specific (competitive) inhibition constant, read-out: KSp, cathepsin L
[10] = KSp, pH 5.5, specific (competitive) inhibition constant

T2 sequence (P07711 114-333): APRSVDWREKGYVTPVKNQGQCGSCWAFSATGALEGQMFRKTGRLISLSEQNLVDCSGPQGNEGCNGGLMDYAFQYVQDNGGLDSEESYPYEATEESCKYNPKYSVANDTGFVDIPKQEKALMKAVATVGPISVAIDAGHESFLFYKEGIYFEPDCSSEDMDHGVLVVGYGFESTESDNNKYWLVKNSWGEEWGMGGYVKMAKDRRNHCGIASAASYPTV

| SMILES | IC50 (human cathepsin B [1]) [µM] | IC50 (human cathepsin L) [µM] | Ki (human cathepsin B [1]; [5]) [µM] | Ki (human cathepsin B [1]; [6]) [µM] | Ki (human cathepsin B [1]; [7]) [µM] | Mechanism of inhibition of cathepsin B (human cathepsin B [1]; pH 5.5) | Mechanism of inhibition of cathepsin B (human cathepsin B [1]; pH 7.4) | IC50 (human cathepsin B [2]) [µM] | solubility [3] [µM] | Inhibition of cathepsin K (cathepsin K) | Mechanism of inhibition of cathepsin L (human cathepsin L) | Ki (human cathepsin L; [8]) [µM] | Ki (human cathepsin L; [9]) [µM] | Ki (human cathepsin B [1]; [10]) [µM] | Mechanism of inhibition of DPPI [4] |
| --- | --- | --- | --- | --- | --- | --- | --- | --- | --- | --- | --- | --- | --- | --- | --- |
| O=C(O)C=Cc1ccc(O)cc1O [2,4-Dihydroxy-cinnamic acid, 2,4-dihydroxycinnamic acid] | 910 ± 30 | 930 ± 150 |  |  |  |  |  |  |  |  |  |  |  |  |  |
| O=C(/C=C/c1ccc(O)c(O)c1)OCCc1ccccc1 [Caffeic acid phenethyl ester, caffeic acid phenethyl ester] | 470 ± 30 | 190 ± 30 | 140 ± 10 | 70 ± 19 | 107 ± 38 | Catalytic | Mixed | 100 ± 20 | ~200 | no inhibition | Mixed | 170 ± 30 | 120 ± 70 |  |  |
| O=C(O)C=Cc1ccc(O)c(O)c1 [Caffeic acid, 3,4-dihydroxycinnamic acid] | 110 ± 10 | > 1000 | 82 ± 16 | 46 ± 4 |  |  | Catalytic | > 1000 |  | no inhibition | Mixed | 1270 ± 120 | 740 ± 70 | 270 ± 140 | linear, mixed balanced |
| O=C(/C=C/c1ccc(O)c(O)c1)O[C@@H]1C[C@](O)(C(=O)O)C[C@@H](O)[C@H]1O [Chlorogenic acid, chlorogenic acid] | 340 ± 20 | 480 ± 20 | 1200 ± 1100 | 92 ± 15 | 92 ± 15 | Mixed | Mixed balanced | 360 ± 60 |  |  | Mixed | 670 ± 60 | 330 ± 20 | 340 ± 80 | linear catalytic |
| O=C(O)/C=C/c1ccccc1 [Cinnamic acid] | > 1000 | > 1000 |  |  |  |  |  |  |  |  |  |  |  |  |  |
| O=C(O)CCc1ccc(O)c(O)c1 [Hydrocaffeic acid, 3-(3,4-Dihydroxyphenyl) propionic acid] | > 1000 | > 1000 |  |  |  |  |  |  |  |  |  |  |  |  |  |
| O=C(O)/C=C/c1ccccc1O [o-Coumaric acid] | > 1000 | > 1000 |  |  |  |  |  |  |  |  |  |  |  |  |  |
| O=C(O)C=Cc1ccc(O)cc1 [p-Coumaric acid] |  | > 1000 |  |  |  |  |  |  |  |  |  |  |  |  |  |
